Assay results from US12516027B2, “Lappaconitine derivative and use thereof” (priority 2020, dated 2026).

Legend:
ERK [1] = experiment: Phosphorylated ERK in MSCs with QG3030 and ERK inhibitor PD98059; assay type: cell-based, human
Experimental: (§1) ERK may induce the phosphorylation of RUNX2 to increase transcriptional activity and may be involved in stability to increase an amount of RUNX2 protein (Greenblatt et al., MB, Annu Rev Cell Dev Biol. 2013). Therefore, an increase in ERK phosphorylation by QG3030 may induce RUNX2 expression so that QG3030 can be involved in the differentiation of MSCs into osteoblasts. To verify this, an expression level of RUNX2 was determined after MSCs were treated with a combination of QG3030 (0.1 μM) and the ERK inhibitor PD98059 (50 μM).

RUNX2 [2] = experiment: RUNX2 expression in MSCs with QG3030 and ERK inhibitor PD98059; assay type: cell-based, human; settings: same at 24 hours
Experimental: as §1

[3] = test system: ovariectomized (OVX) mice; experiment: Animal model of osteoporosis, ovariectomized (OVX) mice; assay type: in vivo
Text: An ability of QG3030 to treat osteoporosis was confirmed in an animal model of ovariectomized (OVX) mice commonly used as an animal model of osteoporosis.
As the positive controls, parathyroid hormone (PTH)-based Forteo (Eli Lilly) used as an osteoporosis therapeutic agent through an osteogenesis-promoting mechanism, and alendronate-based Fosamax (Merck) serving as a bone resorption inhibitor were subcutaneously administered. As the negative control, water (H2O) was orally administered, and QG3030 was orally administered at a concentration of 5 or 30 mg/kg (FIG. 9A). After the drug was administered daily for 10 weeks, the bone mineral density (BMD) was measured.
In Table 2, BMD represents bone mineral density, TV represents total volume, BV represents bone volume, Tb.Th represents trabecular thickness, and Tb.N represents trabecular number.

MSCs = experiment: Osteoblast differentiation of MSCs with kinase inhibitor combination (Alizarin Red); assay type: cell-based, human; settings: QG3030 1 μM + kinase inhibitor 1 μM, 3 weeks, compared to QG3030-alone group
Experimental: To further study the mechanism by which QG3030 differentiates MSCs into osteoblasts, an experiment was performed using a kinase inhibitor.
After MSCs were cultured, the MSCs were simultaneously treated with a kinase inhibitor (1 μM) and QG3030 (1 μM). The next day, the medium was exchanged, and the MSCs were simultaneously treated again with the kinase inhibitor and QG3030. This procedure was repeated for 3 weeks, and the MSCs were then stained with Alizarin Red.

ERK [4] = experiment: Level of phosphorylated ERK (pERK) in MSCs over time; assay type: cell-based, human
Experimental: Accordingly, the level of the phosphorylated ERK according to time elapsed after MSCs were treated with QG3030 was determined.
Also, to determine whether QG3030 induces ERK phosphorylation for a long period, MSCs were treated with various concentrations (0.001, 0.01, and 0.1 μM) of QG3030, and the level of phosphorylated ERK (pERK) was checked after 7 days and 14 days.

BMP-2 = experiment: Change in expression of BMP-2 in MSCs (antibody staining, fluorescence microscope); assay type: cell-based, human; settings: 0.001 μM, once a day for 7 and 14 days; increased with increasing concentration
Text: (§2) Runt-related transcription factor 2 (RUNX2; core-binding factor alpha, Cbfa1) is the most important transcriptional regulatory factor for osteogenesis, and is known to be involved in osteoblast differentiation, matrix generation, and mineralization during osteogenesis (Bruderer M, et al., Eur Cell Mater. 2014). Also, RUNX2 itself may be regulated by a bone morphogenetic protein (BMP), which is a type of cytokine (Sun J, et al., Mol Med Rep. 2015). Accordingly, it was confirmed whether QG3030 promotes the expression of osteogenesis-related specific factors to induce osteogenesis.
(§3) MSCs were seeded in a 24-well plate at a concentration of 3×10^4 cells/well, and cultured for 24 hours. From the next day, the MSCs were treated with different concentrations (0.001 μM, 0.01 μM, and 0.1 μM) of QG3030 once a day for 7 days and 14 days. After the experiment was completed, the MSCs were stained with RUNX2 and BMP-2 antibodies, and observed using a fluorescence microscope.

Sprague Dawley (SD) rat = experiment: Animal model of bone fracture, ilium bone defect; assay type: in vivo
Experimental: The ilium of a Sprague Dawley (SD) rat was subjected to drilling with a diameter of 2 mm to induce a bone defect, and QG3030 (6, 30, and 150 μg/10 μL) mixed with an excipient (collagen sponge, CollaCote®) was implanted into a bone defect site to evaluate an osteoanagenic effect (FIG. 11).
To statistically quantify the osteoanagenic capacity of QG3030, a degree of osteogenesis was realized with a 3-D image, and a region of interest (ROI) was set to analyze parameters such as bone volume/total volume (BV/TV; %), trabecular thickness (Tb.Th; mm), trabecular number (Tb.N; 1/mm), and trabecular separation (Tb.Sp; mm).

ERK, Akt, WNK1 = experiment: Phosphokinase antibody array in MSCs; assay type: cell-based, human; settings: 1 μM, 24 hours, compared to control DMSO
Experimental: To study a mechanism by which QG3030 differentiates MSCs into osteoblasts, related signaling was investigated.
MSCs cultured in an experimental DMEM were treated with QG3030 (1 μM) or the control compound (DMSO), and cultured for 24 hours. The cells were recovered, and an experiment was then performed according to a method specified in a phosphokinase antibody array kit (R&D Systems) containing antibodies that specifically recognize phosphorylated forms of 43 kinases. Then, samples were analyzed using an ImageJ (NIH, USA) program.

osteocalcin = experiment: Change in expression of osteocalcin in MSCs (antibody staining, fluorescence microscope); assay type: cell-based, human; settings: 0.001 μM, within 7 days
Experimental: Osteocalcin is expressed only in osteoblasts (Lee et al., Cell 2007), and is used as a biomarker useful for osteogenesis (Bharadwaj et al., Osteoporosis International., 2009).
An experiment was performed in the same manner as described in Experimental Example 1-2, and MSCs were then stained with an osteocalcin antibody, and observed using a fluorescence microscope.

human MSCs = experiment: Osteocytic differentiation potential in MSCs (Alizarin Red and Von Kossa staining); assay type: cell-based; settings: 0.1 μM, cultured for 3 weeks, like OIM positive control
Experimental: Osteoblasts involved in the osteogenesis are formed by differentiating mesenchymal stem cells (MSCs) using external stimuli and transcription factors involved in various signaling pathways (Garg et al., Orthop Surg. 2017). Accordingly, an experiment was performed to check whether QG3030 was able to induce the differentiation of human MSCs into osteoblasts.
MSCs from normal humans were purchased from the American Type Culture Collection (ATCC, U.S.A), and cultured in an MSC-specific culture medium (Gibco). The cultured cells were digested with trypsin, centrifuged, and then seeded in a 24-well plate at a concentration of 3×10^4 cells/well. The next day, the MSC culture medium was exchanged with a DMEM (DMEM/10% FBS/penicillin/streptomycin) as an experimental medium, and the cells were treated with QG3030 alone (0.1 μM) or OIM (osteogenesis-inducing medium; StemPro Osteogenesis Differentiation Kit, ThermoFisher Scientific Inc.) as the positive control. Thereafter, the cell culture medium was exchanged with a fresh DMEM every day, treated with QG3030 or OIM, and then cultured for 3 weeks. After the culture was completed, the cells were stained with Alizarin Red for detection of calcium and Von Kossa for detection of mineral production.

RUNX2 [5] = experiment: Change in expression of RUNX2 in MSCs (antibody staining, fluorescence microscope); assay type: cell-based, human; settings: 0.001 μM, once a day for 7 and 14 days; increased with increasing concentration
Text: as §2, §3

[6] = OVX mice, positive control, subcutaneous, daily for 10 weeks
[7] = implanted in collagen sponge at bone defect site, QG3030 low, medium and high, BMP2 1 ug/10 uL
[8] = OVX mice, 5 mg/kg oral, daily for 10 weeks
[9] = OVX mice, 30 mg/kg oral, daily for 10 weeks
[10] = OVX mice, 5 or 30 mg/kg oral, daily for 10 weeks

COc1cccc(-c2cc(=O)c3ccccc3o2)c1N [PD98059, reference compound]
increase in the phosphorylation level of ERK by QG3030 (ERK [1]; combination of QG3030 0.1 μM and PD98059 50 μM): inhibited | expression of RUNX2 (RUNX2 [2]; combination of QG3030 0.1 μM and PD98059 50 μM, 12 hours): significantly decreased

CC[C@H](C)[C@H](NC(=O)[C@H](CCC(=O)O)NC(=O)[C@H](CO)NC(=O)[C@@H](NC(=O)[C@@H](N)CO)C(C)C)C(=O)N[C@@H](CCC(N)=O)C(=O)N[C@@H](CC(C)C)C(=O)N[C@@H](CCSC)C(=O)N[C@@H](Cc1cnc[nH]1)C(=O)N[C@@H](CC(N)=O)C(=O)N[C@@H](CC(C)C)C(=O)NCC(=O)N[C@@H](CCCCN)C(=O)N[C@@H](Cc1cnc[nH]1)C(=O)N[C@@H](CC(C)C)C(=O)N[C@@H](CC(N)=O)C(=O)N[C@@H](CO)C(=O)N[C@@H](CCSC)C(=O)N[C@@H](CCC(=O)O)C(=O)N[C@@H](CCCN=C(N)N)C(=O)N[C@H](C(=O)N[C@@H](CCC(=O)O)C(=O)N[C@@H](Cc1c[nH]c2ccccc12)C(=O)N[C@@H](CC(C)C)C(=O)N[C@@H](CCCN=C(N)N)C(=O)N[C@@H](CCCCN)C(=O)N[C@@H](CCCCN)C(=O)N[C@@H](CC(C)C)C(=O)N[C@@H](CCC(N)=O)C(=O)N[C@@H](CC(=O)O)C(=O)N[C@H](C(=O)N[C@@H](Cc1cnc[nH]1)C(=O)N[C@@H](CC(N)=O)C(=O)N[C@@H](Cc1ccccc1)C(=O)O)C(C)C)C(C)C [Forteo, reference compound]
BMD [3, 6]: 0.1997 g/mL | BV [3, 6]: 0.8791 mm^3 | BV/TV [3, 6]: 5.735% | TV [3, 6]: 15.43 mm^3

CCN1C[C@]2(O)CC[C@H](OC)C34C1C(C[C@@H]32)[C@]1(O)C[C@H](OC)[C@@H]2C(=O)C(=O)[C@H]4[C@@H]21 [QG3030, (2aR,2a1S,3S,4aS,8S,11S,11bS,12S)-6-ethyl-4a,8-dihydroxy-3,11-dimethoxy-tetradecahydro-8,11a,5-(epiethane[1,1,2]triyl)cyclopenta[7,1]indeno[5,4-b]azocin-1,2-dione]
osteoblast differentiation ability of QG3030 (Alizarin Red) in combination with inhibitor of ERK, P38 or Akt (MSCs): inhibited | level of phosphorylated ERK (pERK) (ERK [4]; 0.001, 0.01 and 0.1 μM, after 7 days and 14 days): significantly increased | level of phosphorylated ERK (pERK) (ERK [4]; after 24 hours after treatment): increased | level of phosphorylated ERK (pERK) compared with positive control (OIM) (ERK [4]; low concentration, 7 days, lasted until 14 days): greater than that of the positive control | level of phosphorylated ERK (pERK) (ERK [4]; within 30 minutes after treatment): significantly increased | expression of BMP-2 (BMP-2): strongly induced the expression | tissue staining markers (H&E, collagen, type I collagen, osteocalcin) at bone defect sites (Sprague Dawley (SD) rat; QG3030 low, medium and high concentrations, effect similar to BMP2): markers were expressed | bone quality by Tb.N and Tb.Sp (other than Tb.Th) compared to DMSO-treated group (Sprague Dawley (SD) rat; [7]): high-quality bone tissue was statistically significantly formed | bone volume/total volume (BV/TV) compared to negative control treated with DMSO (Sprague Dawley (SD) rat; [7]): increased to a similar level | quality of generated bone compared to BMP2 (Sprague Dawley (SD) rat; no statistical significance): better quality of bone compared to BMP2 | phosphorylation of signaling molecules such as ERK, Akt, WNK1 (ERK, Akt, WNK1): strongly increased the phosphorylation | phosphorylation level of ERK (ERK [1]; QG3030 0.1 μM alone): increased | expression of osteocalcin (osteocalcin): strongly induced the expression of osteocalcin | expression of RUNX2 (RUNX2 [2]; QG3030 0.1 μM alone, within 12 hours): significantly increased | calcium (Alizarin Red staining) (human MSCs): induced calcium and mineral production | mineral production (Von Kossa staining) (human MSCs): induced calcium and mineral production | expression of RUNX2 (RUNX2 [5]): strongly induced the expression | BMD [3, 8]: 0.2136 g/mL | BV [3, 8]: 1.107 mm^3 | BV/TV [3, 8]: 6.713% | TV [3, 8]: 16.57 mm^3 | Tb. N [3, 8]: 0.9472 1/mm | Tb. Th [3, 8]: 0.07081 mm | BMD [3, 9]: 0.2301 g/mL | BV [3, 9]: 1.156 mm^3 | BV/TV [3, 9]: 7.731% | TV [3, 9]: 14.92 mm^3 | Tb. N [3, 9]: 1.044 1/mm | Tb. Th [3, 9]: 0.07492 mm | bone mineral density compared to the negative control [3, 10]: significantly increased | effect on bone mineral density compared with Forteo [3, 10]: significantly superior to that of Forteo | expression of RUNX2 in the femurs (tissue staining) ([3]; ovariectomized mice): significantly increased | osteogenesis in the femurs (tissue staining) ([3]; ovariectomized mice): induced osteogenesis

NCCCC(O)(P(=O)(O)O)P(=O)(O)O [Fosamax, reference compound]
BMD [3, 6]: 0.2135 g/mL | BV [3, 6]: 1.017 mm^3 | BV/TV [3, 6]: 6.521% | TV [3, 6]: 15.51 mm^3
